According to ChEMBL document CHEMBL5291721, “A preclinical secondary pharmacology resource illuminates target-adverse drug reaction associations of marketed drugs” (Nat Commun, 2023):

Experiments:
[1] = biological target: T1, Cholecystokinin receptor type A (Homo sapiens, UniProt P32238)
T1 sequence (P32238 whole entry): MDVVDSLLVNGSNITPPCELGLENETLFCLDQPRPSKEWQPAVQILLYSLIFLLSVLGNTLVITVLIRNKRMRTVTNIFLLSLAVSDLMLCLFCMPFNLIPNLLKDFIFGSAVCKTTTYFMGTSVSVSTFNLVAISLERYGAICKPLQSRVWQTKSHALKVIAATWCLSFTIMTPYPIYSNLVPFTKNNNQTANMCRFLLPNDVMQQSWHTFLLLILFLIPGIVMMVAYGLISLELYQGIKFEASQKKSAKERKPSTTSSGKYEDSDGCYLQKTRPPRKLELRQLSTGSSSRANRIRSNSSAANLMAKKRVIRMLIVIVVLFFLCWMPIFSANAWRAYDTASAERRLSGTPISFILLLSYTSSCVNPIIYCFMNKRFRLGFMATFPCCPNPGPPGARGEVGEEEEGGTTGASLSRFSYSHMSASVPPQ

[2] = biological target: T2, Alpha-1A adrenergic receptor (Homo sapiens, UniProt P35348); format: functional, cell-based
T2 sequence (P35348 whole entry): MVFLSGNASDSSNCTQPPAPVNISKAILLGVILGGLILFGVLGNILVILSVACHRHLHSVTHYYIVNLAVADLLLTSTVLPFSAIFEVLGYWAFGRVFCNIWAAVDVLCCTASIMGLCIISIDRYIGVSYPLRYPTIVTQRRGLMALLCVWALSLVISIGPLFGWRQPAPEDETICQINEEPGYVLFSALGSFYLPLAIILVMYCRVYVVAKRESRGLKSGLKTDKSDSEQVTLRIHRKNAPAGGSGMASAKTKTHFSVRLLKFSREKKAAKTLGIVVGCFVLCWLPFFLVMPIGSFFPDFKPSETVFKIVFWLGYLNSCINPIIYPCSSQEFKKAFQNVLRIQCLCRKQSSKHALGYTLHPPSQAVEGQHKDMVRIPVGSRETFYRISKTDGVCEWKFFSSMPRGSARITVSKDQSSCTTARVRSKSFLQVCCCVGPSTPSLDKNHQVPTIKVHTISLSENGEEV

[3] = biological target: T3, Gastrin/cholecystokinin type B receptor (Homo sapiens, UniProt P32239)
T3 sequence (P32239 whole entry): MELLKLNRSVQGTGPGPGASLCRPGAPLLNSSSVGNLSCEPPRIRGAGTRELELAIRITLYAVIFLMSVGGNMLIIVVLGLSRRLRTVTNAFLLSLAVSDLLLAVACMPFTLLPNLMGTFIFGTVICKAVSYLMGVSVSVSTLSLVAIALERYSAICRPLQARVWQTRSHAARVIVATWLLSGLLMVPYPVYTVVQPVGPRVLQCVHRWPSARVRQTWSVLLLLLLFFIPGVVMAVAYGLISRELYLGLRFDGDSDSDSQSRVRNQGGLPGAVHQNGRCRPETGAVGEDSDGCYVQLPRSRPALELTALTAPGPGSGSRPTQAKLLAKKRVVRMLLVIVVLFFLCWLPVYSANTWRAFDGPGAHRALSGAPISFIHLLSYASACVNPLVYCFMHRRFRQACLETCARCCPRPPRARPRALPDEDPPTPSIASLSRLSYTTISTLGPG

Adenosine receptor A1 = biological target: T4, Adenosine receptor A1 (Homo sapiens, UniProt P30542)
T4 sequence (P30542 whole entry): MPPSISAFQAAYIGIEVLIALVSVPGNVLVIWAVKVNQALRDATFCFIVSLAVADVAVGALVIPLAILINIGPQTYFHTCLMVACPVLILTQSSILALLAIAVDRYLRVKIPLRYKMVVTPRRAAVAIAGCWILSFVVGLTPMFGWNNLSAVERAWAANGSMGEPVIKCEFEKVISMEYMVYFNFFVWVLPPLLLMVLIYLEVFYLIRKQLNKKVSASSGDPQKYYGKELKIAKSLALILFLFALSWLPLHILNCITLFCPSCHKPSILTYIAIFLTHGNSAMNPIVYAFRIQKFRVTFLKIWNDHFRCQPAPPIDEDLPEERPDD

[4] = biological target: T5, Type-1 angiotensin II receptor (Homo sapiens, UniProt P30556)
T5 sequence (P30556 whole entry): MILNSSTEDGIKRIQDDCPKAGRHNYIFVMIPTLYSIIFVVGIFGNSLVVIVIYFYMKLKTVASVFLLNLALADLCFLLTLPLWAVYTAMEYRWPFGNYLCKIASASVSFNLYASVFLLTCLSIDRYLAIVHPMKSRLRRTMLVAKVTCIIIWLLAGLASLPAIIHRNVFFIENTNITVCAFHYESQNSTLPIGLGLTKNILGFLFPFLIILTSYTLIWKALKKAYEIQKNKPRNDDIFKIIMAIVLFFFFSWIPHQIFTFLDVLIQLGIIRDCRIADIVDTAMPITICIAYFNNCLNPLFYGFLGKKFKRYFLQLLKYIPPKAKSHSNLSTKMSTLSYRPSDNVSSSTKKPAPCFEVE

Adenosine receptor A2a = Adenosine receptor A2a (Homo sapiens, UniProt P29274)
[5] = biological target: Beta-1 adrenergic receptor (Homo sapiens, UniProt P08588); format: functional
[6] = biological target: T2, Alpha-1A adrenergic receptor
[7] = biological target: T6, Muscarinic acetylcholine receptor M2 (Homo sapiens, UniProt P08172)
T6 sequence (P08172 whole entry): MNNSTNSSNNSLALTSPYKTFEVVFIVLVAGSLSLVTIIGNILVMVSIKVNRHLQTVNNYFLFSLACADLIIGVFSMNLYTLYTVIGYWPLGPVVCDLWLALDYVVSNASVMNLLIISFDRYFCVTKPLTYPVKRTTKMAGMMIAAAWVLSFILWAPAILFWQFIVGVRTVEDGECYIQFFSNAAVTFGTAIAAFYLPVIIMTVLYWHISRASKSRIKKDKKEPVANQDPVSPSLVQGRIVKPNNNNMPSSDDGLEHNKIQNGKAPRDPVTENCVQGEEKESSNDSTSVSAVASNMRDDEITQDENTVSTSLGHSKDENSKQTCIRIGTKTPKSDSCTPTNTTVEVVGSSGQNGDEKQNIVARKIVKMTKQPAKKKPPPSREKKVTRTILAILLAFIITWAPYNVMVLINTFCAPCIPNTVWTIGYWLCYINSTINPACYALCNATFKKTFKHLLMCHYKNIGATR
Further: assay procedure not described here.

Adenosine receptor A2a, sequence (P29274 whole entry): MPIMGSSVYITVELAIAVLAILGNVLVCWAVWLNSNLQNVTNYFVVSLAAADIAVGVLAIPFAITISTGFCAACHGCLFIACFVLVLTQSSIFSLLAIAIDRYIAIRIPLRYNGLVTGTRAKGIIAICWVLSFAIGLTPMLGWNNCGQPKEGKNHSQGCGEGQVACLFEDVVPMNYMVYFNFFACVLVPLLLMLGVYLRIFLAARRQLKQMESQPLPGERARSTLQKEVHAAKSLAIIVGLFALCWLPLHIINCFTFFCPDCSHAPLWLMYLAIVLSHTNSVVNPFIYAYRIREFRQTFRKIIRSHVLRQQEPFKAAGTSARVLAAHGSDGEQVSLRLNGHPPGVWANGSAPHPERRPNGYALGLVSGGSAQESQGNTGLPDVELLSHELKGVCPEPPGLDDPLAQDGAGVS
Beta-1 adrenergic receptor, sequence (P08588 whole entry): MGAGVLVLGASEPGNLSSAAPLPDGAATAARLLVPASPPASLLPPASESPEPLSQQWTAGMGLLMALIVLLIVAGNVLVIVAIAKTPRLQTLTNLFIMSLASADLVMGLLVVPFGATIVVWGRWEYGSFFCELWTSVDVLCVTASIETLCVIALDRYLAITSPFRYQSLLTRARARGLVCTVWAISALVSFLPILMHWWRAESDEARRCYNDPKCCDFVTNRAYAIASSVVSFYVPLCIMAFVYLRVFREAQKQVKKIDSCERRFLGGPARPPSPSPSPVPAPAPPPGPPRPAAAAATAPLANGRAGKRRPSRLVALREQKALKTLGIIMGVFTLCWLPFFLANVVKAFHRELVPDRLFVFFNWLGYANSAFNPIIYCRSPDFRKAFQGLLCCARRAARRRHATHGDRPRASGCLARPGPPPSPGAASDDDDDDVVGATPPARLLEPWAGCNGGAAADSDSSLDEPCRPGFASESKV

Compound	AC50 [1] [µM]	AC50 [2] [µM]	AC50 [3] [µM]	AC50 [4] [µM]	AC50 (Adenosine receptor A2a) [µM]	AC50 [5] [µM]	also measured
COc1cc(C(C)=O)ccc1OCCCN1CCC(c2noc3cc(F)ccc23)CC1 [ILOPERIDONE]	> 30	0.003	9.33	> 30	> 30	> 30	AC50 (Adenosine receptor A1): > 30 µM; AC50 [6]: 0.0018 µM
CC[C@H](C)C(=O)O[C@H]1C[C@@H](C)C=C2C=C[C@H](C)[C@H](CC[C@@H]3C[C@@H](O)CC(=O)O3)[C@H]21 [LOVASTATIN]	> 30	–	> 30	39.8	> 30	> 10	AC50 [7]: > 10 µM; AC50 [6]: > 10 µM
CC[C@@H](CO)NC(=O)[C@@H]1C=C2c3cccc4c3c(cn4C)C[C@H]2N(C)C1 [METHYSERGIDE]	> 30	–	> 30	> 30	> 30	–	AC50 [7]: > 10 µM
O=C(O)CN(CCN(CC(=O)O)CC(=O)O)CCN(CC(=O)O)CC(=O)O [PENTETIC ACID]	–	1.28	–	–	–	–	–
Nc1cccc2c1C(=O)N(C1CCC(=O)NC1=O)C2=O (stereo unspecified) [POMALIDOMIDE]	–	> 30	–	–	–	–	–
CN(CCOc1ccc(CC2SC(=O)NC2=O)cc1)c1ccccn1 (stereo unspecified) [ROSIGLITAZONE]	> 30	–	> 30	18	> 30	> 30	AC50 [7]: > 10 µM; AC50 [6]: > 10 µM
C[Se]CC[C@H](N)C(=O)O [SELENOMETHIONINE]	–	> 30	–	–	–	–	–
Cc1ccsc1C(=CCCN1CCC[C@@H](C(=O)O)C1)c1sccc1C [TIAGABINE]	–	> 30	–	–	–	–	–
Cc1ccc(C(=O)c2ccc(CC(=O)O)n2C)cc1 [TOLMETIN]	–	> 30	–	–	–	–	–
Cc1ccccc1C(=O)Nc1ccc(C(=O)N2CCCC(O)c3cc(Cl)ccc32)c(C)c1 (stereo unspecified) [TOLVAPTAN]	–	> 30	–	–	–	–	–
C[C@]12C=CC(=O)C=C1CC[C@H]1[C@@H]3C[C@@H](O)[C@](O)(C(=O)CO)[C@@]3(C)C[C@H](O)[C@@]12F [TRIAMCINOLONE]	–	> 30	–	–	–	–	–
CC(C)C[C@H](NC(=O)[C@@H](O)[C@H](N)Cc1ccccc1)C(=O)O [UBENIMEX]	–	–	–	–	> 30	> 30	AC50 (Adenosine receptor A1): > 30 µM
CC(C)[C@H](N)C(=O)OCCOCn1cnc2c(=O)[nH]c(N)nc21 [VALACYCLOVIR]	> 30	–	> 30	> 30	> 30	> 10	AC50 [7]: > 10 µM; AC50 [6]: > 10 µM
CC[C@]12CCCN3CCc4c(n(c5ccccc45)[C@@](O)(C(=O)OC)C1)[C@@H]32 [VINCAMINE]	–	> 30	–	–	–	–	–
CCC1=C[C@@H]2CN(C1)Cc1c([nH]c3ccccc13)[C@@](C(=O)OC)(c1cc3c(cc1OC)N(C)[C@H]1[C@@](O)(C(=O)OC)[C@H](OC(C)=O)[C@]4(CC)C=CCN5CC[C@]31[C@@H]54)C2 [VINORELBINE]	–	> 30	–	–	–	–	–
